Test results: ChEMBL document CHEMBL1944503, “Synthesis and biological evaluation of conjugates of deoxypodophyllotoxin and 5-FU as inducer of caspase-3 and -7” (Eur J Med Chem, 2012)
Activity calls are given as the source filed them. The rule behind the calls is not given here.

Experiments:
SiHa = assay: Cytotoxicity against human SiHa cells after 48 hrs by MTT assay; format: functional, cell-based
A549 [1] = assay: cells; conditions: Homo sapiens, A549, 48 h
Description: Cytotoxicity against human A549 cells after 48 hrs by MTT assay

HL-60 = assay: Cytotoxicity against human HL60 cells after 48 hrs by CCK-8 assay; format: functional, cell-based; conditions: HL-60, 48 h
HeLa = assay: Cytotoxicity against human HeLa cells after 48 hrs by CCK-8 assay; format: functional, cell-based
A549 [2] = assay: Induction of apoptosis in human A549 cells assessed as nuclear condensation at 0.5 uM after 24 hrs by Hoechst 33258 staining based fluorescence microscopy; format: functional, cell-based
A549 [3] = assay: Induction of apoptosis in human A549 cells assessed as membrane blebbing at 0.5 uM after 24 hrs by Hoechst 33258 staining based fluorescence microscopy; format: functional, cell-based
A549 [4] = assay: Induction of apoptosis in human A549 cells assessed as nuclear fragmentation at 0.5 uM after 24 hrs by Hoechst 33258 staining based fluorescence microscopy; format: functional, cell-based
A549 [5] = assay: Induction of apoptosis in human A549 cells assessed as cell shrinkage at 0.5 uM after 24 hrs by Hoechst 33258 staining based fluorescence microscopy; format: functional
A549 [6] = assay: Induction of apoptosis in human A549 cells assessed as cell detachment at 0.5 uM after 24 hrs by Hoechst 33258 staining based fluorescence microscopy; format: functional
A549 [7] = assay: Cell cycle arrest in human A549 cells assessed as accumulation at S phase at 0.5 uM after 24 hrs by propidium iodide staining based flow cytometry analysis (reference value: 30.3%); format: functional
A549 [8] = assay: Cell cycle arrest in human A549 cells assessed as accumulation at G1 phase at 0.5 uM after 12 hrs by propidium iodide staining based flow cytometry analysis (reference value: 54.1%); format: functional
A549 [9] = assay: Cell cycle arrest in human A549 cells assessed as accumulation at G2/M phase at 0.5 uM after 12 hrs by propidium iodide staining based flow cytometry analysis (reference value: 15.6%); format: functional
A549 [10] = assay: Cell cycle arrest in human A549 cells assessed as accumulation at S phase at 0.5 uM after 12 hrs by propidium iodide staining based flow cytometry analysis (reference value: 30.3%); format: functional
A549 [11] = assay: Cell cycle arrest in human A549 cells assessed as accumulation at G1 phase at 0.5 uM by propidium iodide staining based flow cytometry analysis; format: functional; conditions: TDE = time-dependent effect
A549 [12] = assay: Cell cycle arrest in human A549 cells assessed as accumulation at G2/M phase at 0.5 uM by propidium iodide staining based flow cytometry analysis; format: functional; conditions: TDE = time-dependent effect
A549 [13] = assay: Induction of apoptosis in human A549 cells assessed as increase in caspase-3 cleavage at 0.5 uM by Western blot analysis; format: functional, cell-based; conditions: TDE = time-dependent effect
A549 [14] = assay: Cell cycle arrest in human A549 cells assessed as accumulation at G1 phase at 0.5 uM after 24 hrs by propidium iodide staining based flow cytometry analysis (reference value: 54.1%); format: functional
A549 [15] = assay: Cell cycle arrest in human A549 cells assessed as accumulation at G2/M phase at 0.5 uM after 24 hrs by propidium iodide staining based flow cytometry analysis (reference value: 15.6%); format: functional
A549 [16] = assay: Induction of apoptosis in human A549 cells assessed as increase in caspase-7 cleavage at 0.5 uM by Western blot analysis; format: functional, cell-based; conditions: TDE = time-dependent effect

SMILES: COc1cc([C@@H]2c3cc4c(cc3C[C@H]3COC(=O)[C@@H]32)OCO4)cc(OC)c1OC(=O)Cn1cc(F)c(=O)[nH]c1=O
- IC50 (SiHa): 110 nM
- IC50 (A549 [1]): 660 nM
- IC50 (HL-60): 35 nM
- IC50 (HeLa): 180 nM

SMILES: COc1cc([C@@H]2c3cc4c(cc3[C@H](O)[C@H]3COC(=O)[C@H]23)OCO4)cc(OC)c1OC
- Activity (A549 [2]): Active
- Activity (A549 [3]): Active
- Activity (A549 [4]): Active
- Activity (A549 [5]): Active
- Activity (A549 [6]): Active

SMILES: COc1cc([C@@H]2c3cc4c(cc3C[C@H]3COC(=O)[C@@H]32)OCO4)cc(OC)c1OC(=O)[C@H](C)NC(=O)Cn1cc(F)c(=O)[nH]c1=O
- IC50 (SiHa): 600 nM
- IC50 (A549 [1]): 1400 nM
- IC50 (HL-60): 190 nM
- IC50 (HeLa): 200 nM

SMILES: COc1cc([C@@H]2c3cc4c(cc3[C@@H](O[C@@H]3O[C@@H]5CO[C@@H](C)O[C@H]5[C@H](O)[C@H]3O)[C@H]3COC(=O)[C@H]23)OCO4)cc(OC)c1O [ETOPOSIDE]
- IC50 (SiHa): 2760 nM
- IC50 (HeLa): 40400 nM

SMILES: COc1cc([C@@H]2c3cc4c(cc3C[C@H]3COC(=O)[C@@H]32)OCO4)cc(OC)c1OC(=O)[C@@H](CCSC)NC(=O)Cn1cc(F)c(=O)[nH]c1=O
- IC50 (SiHa): 1510 nM
- IC50 (A549 [1]): 2600 nM
- IC50 (HL-60): 940 nM
- IC50 (HeLa): 1970 nM

SMILES: COc1cc([C@@H]2c3cc4c(cc3C[C@H]3COC(=O)[C@@H]32)OCO4)cc(OC)c1OC(=O)[C@H](Cc1ccccc1)NC(=O)Cn1cc(F)c(=O)[nH]c1=O
- Activity (A549 [7]): 31.3%
- Activity (A549 [2]): Active
- Activity (A549 [8]): 4.84%
- Activity (A549 [9]): 52.6%
- Activity (A549 [10]): 42.6%
- Activity (A549 [3]): Active
- Activity (A549 [11]): tde
- Activity (A549 [4]): Active
- Activity (A549 [5]): Active
- IC50 (SiHa): 760 nM
- Activity (A549 [12]): tde
- Activity (A549 [13]): tde
- Activity (A549 [14]): 3.94%
- IC50 (A549 [1]): 560 nM
- Activity (A549 [6]): Active
- IC50 (HL-60): 23 nM
- IC50 (HeLa): 830 nM
- Activity (A549 [15]): 64.8%
- Activity (A549 [16]): tde

SMILES: COc1cc([C@@H]2c3cc4c(cc3C[C@H]3COC(=O)[C@@H]32)OCO4)cc(OC)c1O [4'-DEMETHYLDEOXYPODOPHYLLOTOXIN]
- IC50 (SiHa): 43000 nM
- IC50 (HeLa): 53300 nM

SMILES: COc1cc([C@@H]2c3cc4c(cc3C[C@H]3COC(=O)[C@@H]32)OCO4)cc(OC)c1OC(=O)[C@H](CC(C)C)NC(=O)Cn1cc(F)c(=O)[nH]c1=O
- IC50 (SiHa): 350 nM
- IC50 (A549 [1]): 1070 nM
- IC50 (HL-60): 63 nM
- IC50 (HeLa): 430 nM

SMILES: COc1cc([C@@H]2c3cc4c(cc3C[C@H]3COC(=O)[C@@H]32)OCO4)cc(OC)c1OC(=O)[C@H](CCSC)NC(=O)Cn1cc(F)c(=O)[nH]c1=O
- IC50 (SiHa): 360 nM
- IC50 (A549 [1]): 830 nM
- IC50 (HL-60): 230 nM
- IC50 (HeLa): 780 nM

SMILES: COc1cc([C@@H]2c3cc4c(cc3C[C@H]3COC(=O)[C@@H]32)OCO4)cc(OC)c1OC [DESOXYPODOPHYLLOTOXIN]
- IC50 (SiHa): 1980 nM
- IC50 (HeLa): 6010 nM

SMILES: O=c1[nH]cc(F)c(=O)[nH]1 [FLUOROURACIL]
- IC50 (SiHa): 218000 nM
- IC50 (A549 [1]): 54800 nM
- IC50 (HL-60): 68300 nM
- IC50 (HeLa): 82200 nM

SMILES: COc1cc([C@@H]2c3cc4c(cc3C[C@H]3COC(=O)[C@@H]32)OCO4)cc(OC)c1OC(=O)[C@@H](NC(=O)Cn1cc(F)c(=O)[nH]c1=O)C(C)C
- IC50 (SiHa): 1650 nM
- IC50 (A549 [1]): 360 nM
- IC50 (HL-60): 140 nM
- IC50 (HeLa): 1230 nM
